Test results from US10196346B2, “Substituted acethydrazide derivative, preparation method and use thereof” (Institute of Pharmacology and Toxicology Academy of …, priority 2014, dated 2019).

Molecular target: EGFP-HIF-1α fusion protein (Homo sapiens (Human), UniProt Q16665)
Assay: Stabilization of HIF-1α in EGFP-HIF-1α-CHOhIR cell model (nuclear EGFP fluorescence imaging)
Assay type: cell-based
Conditions: CHOhIR cells stably expressing EGFP-HIF-1α; 3 h incubation; 0.03-30 μM; bipyridine 100 μM = 100% activation; read-out: Effects in stabilization of HIF-1α activity (EC50)
Method: CHOhIR cells (purchased from Thermo Fisher Scientific) which stably expressed EGFP-HIF-1α fusion protein were cultured under 37° C. and 5% CO2 in F12 culture solution containing 0.5 mg/ml G418 and 10% FBS, transplanted in an amount of 0.8×10^4 cells/100 μl/well on a 96-well culture plate that could be subjected to fluorescence detection, and cultured under 37° C. and 5% CO2 for 18-24 h. […] After the cells were incubated under 37° C. and 5% CO2 for 3 h, 12% formaldehyde in amount of 100 μl/well was added, fixation was carried out at room temperature for 30 min. Culture media was discarded, and the plate was washed with PBS twice, PBS containing 1 μM Hoechst was used, staining was performed at room temperature for 1 h. Detection was performed by IN Cell Analyzer 1000 live cell imaging system. Detection conditions were: 20× objective lens, excitation wavelength Ex=460 nm, emission wavelength […] to detect blue-fluorescence of cell nucleus passage; excitation wavelength Ex=475 nm, emission wavelength Em=535 nm, exposure 500 ms to detect green-fluorescence EGFP of cytoplasm passage, and pictures were taken continuously in 5 fields of view for each well. IN Cell Analyzer 1000 Multitarget Analysis Module of GE Company was used for analyzing aggregation of green-fluorescence of HIF-1α in cell nucleus, and BP100 μM treatment group was used as 100% activation of HIF-1α.

EC50	Structure (SMILES)
760 ± 150 nM	CCN(CC)c1ccc(/C=N/NC(=O)CN(C)CCN(C)Cc2cccc(OC)c2)c(O)c1 [Example 23, (E)-N′-(4-N,N-diethylamino-2-hydroxybenzal)-2-{N-{2-[N-(3-methoxybenzyl)-N-methylamino]ethyl}N-methylamino}acethydrazide]
2770 ± 310 nM	COc1cccc(CN(C)CCN(C)CC(=O)N/N=C/c2cc(C(C)(C)C)cc(C(C)(C)C)c2O)c1 [Example 22, (E)-N′-(3,5-di-tert-butyl-2-hydroxybenzal)-2-{N-{2-[N-(3-methoxybenzyl)-N-methylamino]ethyl}N-methylamino}acethydrazide]
1860 ± 570 nM	CCOc1cccc(/C=N/NC(=O)CN(C)CCN(C)Cc2ccc(C(C)(C)C)cc2)c1O [Example 32, (E)-N′-(3-ethoxy-2-hydroxybenzal)-2-{N-{2-[N-(4-tert-butylbenzyl)-N-methylamino]ethyl}N-methylamino}acethydrazide]
130 ± 20 nM	CCN(CC)c1ccc(/C=N/NC(=O)CN(C)CCCN(C)Cc2ccc(C(C)(C)C)cc2)c(O)c1 [Example 33, (E)-N′-(4-N,N-diethylamino-2-hydroxybenzal)-2-{N-{3-[N-(4-tert-butylbenzyl)-N-methylamino]propyl}N-methylamino}acethydrazide]
830 ± 180 nM	CN(CCN(C)Cc1cccc2ccccc12)CC(=O)N/N=C/c1c(O)ccc2ccccc12 [Example 4, (E)-N′-[(2-hydroxynaphthalen-1-yl)methylene]-2-{N-{2-[N-(naphthalen-1-yl-methylene)-N-methylamino]ethyl}N-methylamino}acethydrazide]
980 ± 100 nM	CN(CCN(C)Cc1ccc(C#N)cc1)CC(=O)N/N=C/c1c(O)ccc2ccccc12 [Example 26, (E)-N′-[(2-hydroxynaphthalen-1-yl)methylene]-2-{N-{2-[N-(4-cyanobenzyl)-N-methylamino]ethyl}N-methylamino}acethydrazide]
5230 ± 1390 nM	CN(CCN(C)Cc1cccc(C(F)(F)F)c1)CC(=O)N/N=C/c1cc(C(C)(C)C)cc(C(C)(C)C)c1O [Example 8, (E)-N′-(3,5-di-tert-butyl-2-hydroxybenzal)-2-{N-{2-[N-(3-trifluoromethylbenzyl)-N-methylamino]ethyl}N-methylamino}acethydrazide]
170 ± 40 nM	CN(CCN(C)Cc1cccc(C(F)(F)F)c1)CC(=O)N/N=C/c1cccc(O)c1O [Example 11, (E)-N′-(2,3-dihydroxybenzal)-2-{N-{2-[N-(3-trifluoromethylbenzyl)-N-methylamino]ethyl}N-methylamino}acethydrazide]
2110 ± 850 nM	CCOc1cccc(/C=N/NC(=O)CN(C)CCN(C)Cc2cccc3ccccc23)c1O [Example 3, (E)-N′-(3-ethoxy-2-hydroxybenzal)-2-{N-{2-[N-(naphthalen-1-yl-methylene)-N-methylamino]ethyl}N-methylamino}acethydrazide]
600 ± 180 nM	CCN(CC)c1ccc(/C=N/NC(=O)CN(C)CCN(C)Cc2cccc(C(F)(F)F)c2)c(O)c1 [Example 10, (E)-N′-(4-N,N-diethylamino-2-hydroxybenzal)-2-{N-{2-[N-(3-trifluoromethylbenzyl)-N-methylamino]ethyl}N-methylamino}acethydrazide]
780 ± 140 nM	CCN(CC)c1ccc(/C=N/NC(=O)CN(C)CCN(C)Cc2cccc3ccccc23)c(O)c1 [Example 5, (E)-N′-(4-N,N-diethylamino-2-hydroxybenzal)-2-{N-{2-[N-(naphthalen-1-yl-methylene)-N-methylamino]ethyl}N-methylamino}acethydrazide]
8420 ± 3150 nM	COc1cccc(/C=N/NC(=O)CN(C)CCN(C)Cc2ccc(C#N)cc2)c1O [Example 28, (E)-N′-(3-methoxy-2-hydroxybenzal)-2-{N-{2-[N-(4-cyanobenzyl)-N-methylamino]ethyl}N-methylamino}acethydrazide]
820 ± 90 nM	COc1cccc(CN(C)CCN(C)CC(=O)N/N=C/c2cccc(O)c2O)c1 [Example 24, (E)-N′-(2,3-dihydroxybenzal)-2-{N-{2-[N-(3-methoxybenzyl)-N-methylamino]ethyl}N-methylamino}acethydrazide]
7190 ± 1270 nM	COc1cccc(CN(C)CCN(C)CC(=O)N/N=C/c2cc(Br)ccc2O)c1 [Example 25, (E)-N′-(3-bromo-6-hydroxybenzal)-2-{N-{2-[N-(3-methoxybenzyl)-N-methylamino]ethyl}N-methylamino}acethydrazide]
7750 ± 1330 nM	CN(CCN(C)Cc1ccc(C#N)cc1)CC(=O)N/N=C/c1cc(C(C)(C)C)cc(C(C)(C)C)c1O [Example 27, (E)-N′-(3,5-di-tert-butyl-2-hydroxybenzal)-2-{N-{2-[N-(4-cyanobenzyl)-N-methylamino]ethyl}N-methylamino}acethydrazide]
2770 ± 390 nM	CCOc1cccc(/C=N/NC(=O)CN(C)CCN(C)Cc2ccc(C#N)cc2)c1O [Example 29, (E)-N′-(3-ethoxy-2-hydroxybenzal)-2-{N-{2-[N-(4-cyanobenzyl)-N-methylamino]ethyl}N-methylamino}acethydrazide]
17800 ± 4810 nM	CN(CCN(C)Cc1cccc2ccccc12)CC(=O)N/N=C/c1cc(C(C)(C)C)cc(C(C)(C)C)c1O [Example 2, (E)-N′-(3,5-di-tert-butyl-2-hydroxybenzal)-2-{N-{2-[N-(naphthalen-1-yl-methylene)-N-methylamino]ethyl}N-methylamino}acethydrazide]
11200 ± 2870 nM	CC(C)c1ccc(CN(C)CCN(C)CC(=O)N/N=C/c2cc(C(C)(C)C)cc(C(C)(C)C)c2O)cc1 [Example 15, (E)-N′-(3,5-di-tert-butyl-2-hydroxybenzal)-2-{N-{2-[N-(4-isopropylbenzyl)-N-methylamino]ethyl}N-methylamino}acethydrazide]
1020 ± 340 nM	CC(C)c1ccc(CN(C)CCN(C)CC(=O)N/N=C/c2c(O)ccc3ccccc23)cc1 [Example 14, (E)-N′-[(2-hydroxynaphthalen-1-yl)methylene]-2-{N-{2-[N-(4-isopropylbenzyl)-N-methylamino]ethyl}N-methylamino}acethydrazide]
2760 ± 780 nM	COc1cccc(/C=N/NC(=O)CN(C)CCN(C)Cc2ccc(C(C)(C)C)cc2)c1O [Example 31, (E)-N′-(3-methoxy-2-hydroxybenzal)-2-{N-{2-[N-(4-tert-butylbenzyl)-N-methylamino]ethyl}N-methylamino}acethydrazide]
2290 ± 270 nM	COc1cccc(/C=N/NC(=O)CN(C)CCN(C)Cc2cccc3ccccc23)c1O [Example 1, (E)-N′-(3-methoxy-2-hydroxybenzal)-2-{N-{2-[N-(naphthalen-1-yl-methylene)-N-methylamino]ethyl}N-methylamino}acethydrazide]
800 ± 190 nM	CCOc1cccc(/C=N/NC(=O)CN(C)CCN(C)Cc2ccc(C(C)C)cc2)c1O [Example 13, (E)-N′-[(3-ethoxy-2-hydroxybenzal)methylene]-2-{N-{2-[N-(4-isopropylbenzyl)-N-methylamino]ethyl}N-methylamino}acethydrazide]
2280 ± 670 nM	CC(C)c1ccc(CN(C)CCN(C)CC(=O)N/N=C/c2cc(Br)ccc2O)cc1 [Example 18, (E)-N′-(3-bromo-6-hydroxybenzal)-2-{N-{2-[N-(4-isopropylbenzyl)-N-methylamino]ethyl}N-methylamino}acethydrazide]
560 ± 150 nM	CC(C)c1ccc(CN(C)CCN(C)CC(=O)N/N=C/c2cccc(O)c2O)cc1 [Example 17, (E)-N′-(2,3-dihydroxybenzal)-2-{N-{2-[N-(4-isopropylbenzyl)-N-methylamino]ethyl}N-methylamino}acethydrazide]
530 ± 20 nM	CCN(CC)c1ccc(/C=N/NC(=O)CN(C)CCN(C)Cc2ccc(C#N)cc2)c(O)c1 [Example 30, (E)-N′-(4-N,N-diethylamino-2-hydroxybenzal)-2-{N-{2-[N-(4-cyanobenzyl)-N-methylamino]ethyl}N-methylamino}acethydrazide]
